Test results from patent publication US8735439B2, “Chlorin e6-folic acid conjugate, preparation method thereof, and a pharmaceutical composition for the treatment of cancer comprising the same” (Diatech Korea Co., Ltd., priority 2009, dated 2014).

How the values were obtained:
[1] = Spectral and fluorescent parameters of chlorin e6 conjugate in different systems; assay type: physicochemical
Procedure: Pigment-protein complexes have been formed by adding to the solution of human serum albumin (HAS) a specific amount of photosensitizer dissolved in the same buffer. […] Similarly, the photosensitizer was included in detergent micelle (Triton X-100, C=10^−3M).
The electronic absorption spectra of the subject solution were recorded on Specord UV-Vis. The fluorescence spectra and value of degree of fluorescence polarization (P) were recorded on an automatic spectrofluorimeter (Institute of Physics). Life time of photosensitizer fluorescence (ts) was estimated using an impulse fluorometer operating in the mode of photons counting.
The main feature of the absorption spectrum is intensive (ε=4.8 10^4 M^−1 cm^−1) Qx (0-0) band at 660 nm, which falls into the spectral window of the majority of biological tissues.
Complex formation of chlorin e6 conjugate, and HSA, liposomes or detergent micelles leads to bathochromic shift in the absorption and fluorescence spectra of pigment. However, an increase in fluorescence photoresponse (B) was observed, which correlates with the growth of life time (ts) without changing of the Kravec integral value.

sarcoma M-1 = test: Growth of sarcoma M-1 after PDT (tumor volume); assay type: in vivo, rats
Procedure: For this purpose, a laser medical instrument “ ? 680-2000” (BIOSPEC, Moscow) was used to perform the exposure at a wavelength of 670 nm in a dose of 100 J/cm^2. The power density was 0.51 W/cm^2, the output power was 0.4 W, and the spot light diameter was 1 cm. Time of exposure was […]. Monitoring over radiating power was conducted by a universal power meter included in the laser device “ ? 4680-2000”.

HeLa cell culture = test: Phototoxicity (photodynamic activity), 3.5 h incubation, 3.3 joule/cm^2; assay type: cell-based; parameters: number of HELA cells relative to the control: unit not given here; conditions: photoexposure 3.3 joule/cm^2; for number of HELA cells relative to the control: 3.5 hours incubation
Procedure: To examine the photodynamic effects of a photosensitizer on a HeLa cell culture, the photosensitizer solution was added to the nutrient media at a final concentration of 0.1, 0.5, 1.0, 5.0 or 10 mcg/ml on day 3 after transplanting the cell culture into flasks. The flasks were wrapped with a light protecting cover, and incubated at 37° C. for 3.5 hours. Then, the cells were washed with Hank's solution, and exposed on ice by a laser medical device “LD 680-2000” (wavelength: 670-690 nm) at a dose of 3.3 joule/cm^2. After 20-24 hours, the available cell monolayer was dispersed using a 0.02%-Versene solution, and the number of tumor cells was calculated in Goriaev's chamber. For each point, 3 flasks were used.

[2] = Generation of singlet oxygen (luminescence at 1270 nm); assay type: physicochemical
Procedure: Photoresponse of this process (φΔ) was measured by a relative method through integral intensity of singlet oxygen luminescence at a wavelength of 1270 nm. Excitation was conducted at a wavelength of 531 nm (pulse energy 4 microJ, frequency 1 kHz). Tests were made in air saturated buffer solutions at room temperature. […] The φΔ in D2O was considered as 0.7.
To analyze kinetic curves of singlet oxygen luminescence, the following function was used:
wherein A is a coefficient depending on initial concentrations of interacted reagents, and k1 and k2 are constants of luminescence signal increase and extinction, respectively.
In the case when the deactivation rate constant Kτ of the photosensitizer triplet state exceeds the deactivation rate constant KΔ of the molecular oxygen […] state, the constant of increase k1 corresponds to Kτ, and constant of extinction k2 corresponds to KΔ. In the case of Kτ<KΔ, inversion of the kinetics of singlet oxygen luminescence occurs. In this case, k2=Kτ and k1=KΔ. […] Thus, based on kinetic data, the life times of singlet oxygen and triplet state can be calculated.

[3] = air saturated buffer solution, room temperature

[γ-(6-aminohexyl)folic acid]-chlorin e6 [chlorin e6 conjugate]
l^00abs ([1]; Dimethyl sulfoxide): 661 Nm
l^00fl ([1]; Dimethyl sulfoxide): 672 nm
tS (life time of fluorescence) ([1]; Dimethyl sulfoxide): 4.6 ns
B (fluorescence photoresponse) ([1]; H2O, pH 8.1): 0.16
l^00abs ([1]; H2O, pH 8.1): 657 Nm
l^00fl ([1]; H2O, pH 8.1): 664 nm
tS (life time of fluorescence) ([1]; H2O, pH 8.1): 4.3 ns
B (fluorescence photoresponse) ([1]; HSA, pH 8.1): 0.18
l^00abs ([1]; HSA, pH 8.1): 664 Nm
l^00fl ([1]; HSA, pH 8.1): 669 nm
tS (life time of fluorescence) ([1]; HSA, pH 8.1): 5.2 ns
B (fluorescence photoresponse) ([1]; Liposomes, pH 8.1): 0.21
l^00abs ([1]; Liposomes, pH 8.1): 665 Nm
l^00fl ([1]; Liposomes, pH 8.1): 670 nm
tS (life time of fluorescence) ([1]; Liposomes, pH 8.1): 5.4 ns
l^00abs ([1]; Methanol): 662 Nm
l^00fl ([1]; Methanol): 667 nm
tS (life time of fluorescence) ([1]; Methanol): 4.8 ns
B (fluorescence photoresponse) ([1]; Pyridine): 0.18
l^00abs ([1]; Pyridine): 666 Nm
l^00fl ([1]; Pyridine): 673 nm
tS (life time of fluorescence) ([1]; Pyridine): 5.0 ns
l^00abs ([1]; Tetrahydrofuran): 667 Nm
tS (life time of fluorescence) ([1]; Tetrahydrofuran): 5.0 ns
B (fluorescence photoresponse) ([1]; Triton X-100, pH 8.1): 0.19
l^00abs ([1]; Triton X-100, pH 8.1): 665 Nm
l^00fl ([1]; Triton X-100, pH 8.1): 670 nm
tS (life time of fluorescence) ([1]; Triton X-100, pH 8.1): 5.7 ns
P (degree of fluorescence polarization) ([1]; in liposomes): 0.13
Growth inhibition rate of sarcoma M-1 in volume to the control (sarcoma M-1; 2.5 mg/100 g + 100 J/cm^2 for 1 h, day 7): 47.5%
Growth inhibition rate of sarcoma M-1 in volume to the control (sarcoma M-1; 2.5 mg/100 g + 100 J/cm^2 for 1 h, day 10): 79.4%
Growth inhibition rate of sarcoma M-1 in volume to the control (sarcoma M-1; 2.5 mg/100 g + 100 J/cm^2 for 1 h, day 12): 87.6%
Growth inhibition rate of sarcoma M-1 in volume to the control (sarcoma M-1; 2.5 mg/100 g + 100 J/cm^2 for 1 h, day 14): 89.8%
Growth inhibition rate of sarcoma M-1 in volume to the control (sarcoma M-1; 2.5 mg/100 g + 100 J/cm^2 for 1 h, day 17): 94.8%
Growth inhibition rate of sarcoma M-1 in volume to the control (sarcoma M-1; 2.5 mg/100 g + 100 J/cm^2 for 1 h, day 19): 94.1%
Growth inhibition rate of sarcoma M-1 in volume to the control (sarcoma M-1; 2.5 mg/100 g + 100 J/cm^2 for 1 h, day 21): 94.2%
Growth inhibition rate of sarcoma M-1 in volume to the control (sarcoma M-1; 2.5 mg/100 g + 100 J/cm^2 for 1 h, day 24): 93.6%
volume of sarcoma M-1 (sarcoma M-1; 2.5 mg/kg + 100 J/cm^2 for 1 h, day 7 after tumor transplant): 0.25 ± 0.03 cm^3
volume of sarcoma M-1 (sarcoma M-1; 2.5 mg/kg + 100 J/cm^2 for 1 h, day 10): 0.28 ± 0.03 cm^3
volume of sarcoma M-1 (sarcoma M-1; 2.5 mg/kg + 100 J/cm^2 for 1 h, day 12): 0.34 ± 0.06 cm^3
volume of sarcoma M-1 (sarcoma M-1; 2.5 mg/kg + 100 J/cm^2 for 1 h, day 14): 0.41 ± 0.09 cm^3
volume of sarcoma M-1 (sarcoma M-1; 2.5 mg/kg + 100 J/cm^2 for 1 h, day 17): 0.46 ± 0.11 cm^3
volume of sarcoma M-1 (sarcoma M-1; 2.5 mg/kg + 100 J/cm^2 for 1 h, day 19): 0.69 ± 0.27 cm^3
volume of sarcoma M-1 (sarcoma M-1; 2.5 mg/kg + 100 J/cm^2 for 1 h, day 21): 0.96 ± 0.38 cm^3
volume of sarcoma M-1 (sarcoma M-1; 2.5 mg/kg + 100 J/cm^2 for 1 h, day 24): 1.19 ± 0.48 cm^3
Growth inhibition rate of sarcoma M-1 in volume to the control (sarcoma M-1; 5 mg/100 g + 100 J/cm^2 for 1 h, day 7): 36.9%
Growth inhibition rate of sarcoma M-1 in volume to the control (sarcoma M-1; 5 mg/100 g + 100 J/cm^2 for 1 h, day 10): 77.9%
Growth inhibition rate of sarcoma M-1 in volume to the control (sarcoma M-1; 5 mg/100 g + 100 J/cm^2 for 1 h, day 12): 89.1%
Growth inhibition rate of sarcoma M-1 in volume to the control (sarcoma M-1; 5 mg/100 g + 100 J/cm^2 for 1 h, day 14): 92.6%
Growth inhibition rate of sarcoma M-1 in volume to the control (sarcoma M-1; 5 mg/100 g + 100 J/cm^2 for 1 h, day 17): 95.8%
Growth inhibition rate of sarcoma M-1 in volume to the control (sarcoma M-1; 5 mg/100 g + 100 J/cm^2 for 1 h, day 19): 95.9%
Growth inhibition rate of sarcoma M-1 in volume to the control (sarcoma M-1; 5 mg/100 g + 100 J/cm^2 for 1 h, day 21): 96.9%
Growth inhibition rate of sarcoma M-1 in volume to the control (sarcoma M-1; 5 mg/100 g + 100 J/cm^2 for 1 h, day 24): 97.1%
volume of sarcoma M-1 (sarcoma M-1; 5 mg/kg + 100 J/cm^2 for 1 h, day 7 after tumor transplant): 0.29 ± 0.02 cm^3
volume of sarcoma M-1 (sarcoma M-1; 5 mg/kg + 100 J/cm^2 for 1 h, day 10): 0.300 ± .03 cm^3
volume of sarcoma M-1 (sarcoma M-1; 5 mg/kg + 100 J/cm^2 for 1 h, day 12): 0.30 ± 0.03 cm^3
volume of sarcoma M-1 (sarcoma M-1; 5 mg/kg + 100 J/cm^2 for 1 h, day 14): 0.30 ± 0.03 cm^3
volume of sarcoma M-1 (sarcoma M-1; 5 mg/kg + 100 J/cm^2 for 1 h, day 17): 0.37 ± 0.05 cm^3
volume of sarcoma M-1 (sarcoma M-1; 5 mg/kg + 100 J/cm^2 for 1 h, day 19): 0.47 ± 0.11 cm^3
volume of sarcoma M-1 (sarcoma M-1; 5 mg/kg + 100 J/cm^2 for 1 h, day 21): 0.50 ± 0.14 cm^3
volume of sarcoma M-1 (sarcoma M-1; 5 mg/kg + 100 J/cm^2 for 1 h, day 24): 0.54 ± 0.17 cm^3
Growth inhibition rate of sarcoma M-1 in volume to the control (sarcoma M-1; 10 mg/100 g + 100 J/cm^2 for 1 h, day 7): 56.5%
Growth inhibition rate of sarcoma M-1 in volume to the control (sarcoma M-1; 10 mg/100 g + 100 J/cm^2 for 1 h, day 10): 86.0%
Growth inhibition rate of sarcoma M-1 in volume to the control (sarcoma M-1; 10 mg/100 g + 100 J/cm^2 for 1 h, day 12): 93.8%
Growth inhibition rate of sarcoma M-1 in volume to the control (sarcoma M-1; 10 mg/100 g + 100 J/cm^2 for 1 h, day 14): 95.8%
Growth inhibition rate of sarcoma M-1 in volume to the control (sarcoma M-1; 10 mg/100 g + 100 J/cm^2 for 1 h, day 17): 98.1%
Growth inhibition rate of sarcoma M-1 in volume to the control (sarcoma M-1; 10 mg/100 g + 100 J/cm^2 for 1 h, day 19): 95.2%
Growth inhibition rate of sarcoma M-1 in volume to the control (sarcoma M-1; 10 mg/100 g + 100 J/cm^2 for 1 h, day 21): 98.8%
Growth inhibition rate of sarcoma M-1 in volume to the control (sarcoma M-1; 10 mg/100 g + 100 J/cm^2 for 1 h, day 24): 98.9%
volume of sarcoma M-1 (sarcoma M-1; 10 mg/kg + 100 J/cm^2 for 1 h, day 7 after tumor transplant): 0.20 ± 0.03 cm^3
volume of sarcoma M-1 (sarcoma M-1; 10 mg/kg + 100 J/cm^2 for 1 h, day 10): 0.19 ± 0.04 cm^3
volume of sarcoma M-1 (sarcoma M-1; 10 mg/kg + 100 J/cm^2 for 1 h, day 12): 0.17 ± 0.03 cm^3
volume of sarcoma M-1 (sarcoma M-1; 10 mg/kg + 100 J/cm^2 for 1 h, day 14): 0.17 ± 0.03 cm^3
volume of sarcoma M-1 (sarcoma M-1; 10 mg/kg + 100 J/cm^2 for 1 h, day 17): 0.17 ± 0.03 cm^3
volume of sarcoma M-1 (sarcoma M-1; 10 mg/kg + 100 J/cm^2 for 1 h, day 19): 0.17 ± 0.03 cm^3
volume of sarcoma M-1 (sarcoma M-1; 10 mg/kg + 100 J/cm^2 for 1 h, day 21): 0.20 ± 0.03 cm^3
volume of sarcoma M-1 (sarcoma M-1; 10 mg/kg + 100 J/cm^2 for 1 h, day 24): 0.20 ± 0.03 cm^3
inhibition rate of tumor volumetric growth compared to the control (sarcoma M-1; rats with sarcoma M-1, monitored for 24 days after PDT): 86.34-99.1%
number of HELA cells relative to the control (HeLa cell culture; 0.1 mcg/ml): 65.1
number of HELA cells relative to the control (HeLa cell culture; 0.5 mcg/ml): 42.3
number of HELA cells relative to the control (HeLa cell culture; 1.0 mcg/ml): 12.6
inhibition of proliferation of Hela cells (HeLa cell culture; 5-10 mcg/ml): fully inhibited the proliferation
number of HELA cells relative to the control (HeLa cell culture; 5.0 mcg/ml): 0.1
φΔ (efficiency of ^1O2 generation) ([2]; H2O, pH 8.1): 0.70
φΔ (efficiency of ^1O2 generation) ([2]; HSA, H2O, pH 8.1): 0.63-
φΔ (efficiency of ^1O2 generation) ([2]; Pyridine): 0.68
φΔ (efficiency of ^1O2 generation) ([2]; Triton X-100): 0.80
τt (life time of triplet state) from kinetic curves of singlet oxygen luminescence [2, 3]: 2.0±0.2 microsec.
τΔ (life time of singlet oxygen) from kinetic curves of singlet oxygen luminescence [2, 3]: 3.6±0.2 microsec.
photoresponse of photosensitized formation of singlet oxygen ([2]; pH 6.0): 0.52
photoresponse of photosensitized formation of singlet oxygen ([2]; pH 8.1): 0.7
